From patent US9073863B2, “Cyanoquinoline compounds having activity in correcting mutant-CFTR processing and increasing ion transport and uses thereof” (The Regents of the University of California, priority 2011, dated 2015)
pEC50: −log10 of the molar value.

Experiments:
Assay type in all cases: cell-based
[1] = target: T1, ΔF508-CFTR (Homo sapiens, UniProt P13569, DEL508-508); test: Short-circuit current potentiator assay in ΔF508-CFTR expressing FRT cells after low-temperature rescue; settings: 27° C. for 24 h prior to measurement, in the presence of forskolin; read-out: Apparent EC50 for potentiator activity as measured by short-circuit current
T1 construct: expressed in transfected cells; host or cells: Fischer rat thyroid (FRT) epithelial cells, stably transfected
T1 sequence (P13569 with tags, fused parts or gaps DEL508-508): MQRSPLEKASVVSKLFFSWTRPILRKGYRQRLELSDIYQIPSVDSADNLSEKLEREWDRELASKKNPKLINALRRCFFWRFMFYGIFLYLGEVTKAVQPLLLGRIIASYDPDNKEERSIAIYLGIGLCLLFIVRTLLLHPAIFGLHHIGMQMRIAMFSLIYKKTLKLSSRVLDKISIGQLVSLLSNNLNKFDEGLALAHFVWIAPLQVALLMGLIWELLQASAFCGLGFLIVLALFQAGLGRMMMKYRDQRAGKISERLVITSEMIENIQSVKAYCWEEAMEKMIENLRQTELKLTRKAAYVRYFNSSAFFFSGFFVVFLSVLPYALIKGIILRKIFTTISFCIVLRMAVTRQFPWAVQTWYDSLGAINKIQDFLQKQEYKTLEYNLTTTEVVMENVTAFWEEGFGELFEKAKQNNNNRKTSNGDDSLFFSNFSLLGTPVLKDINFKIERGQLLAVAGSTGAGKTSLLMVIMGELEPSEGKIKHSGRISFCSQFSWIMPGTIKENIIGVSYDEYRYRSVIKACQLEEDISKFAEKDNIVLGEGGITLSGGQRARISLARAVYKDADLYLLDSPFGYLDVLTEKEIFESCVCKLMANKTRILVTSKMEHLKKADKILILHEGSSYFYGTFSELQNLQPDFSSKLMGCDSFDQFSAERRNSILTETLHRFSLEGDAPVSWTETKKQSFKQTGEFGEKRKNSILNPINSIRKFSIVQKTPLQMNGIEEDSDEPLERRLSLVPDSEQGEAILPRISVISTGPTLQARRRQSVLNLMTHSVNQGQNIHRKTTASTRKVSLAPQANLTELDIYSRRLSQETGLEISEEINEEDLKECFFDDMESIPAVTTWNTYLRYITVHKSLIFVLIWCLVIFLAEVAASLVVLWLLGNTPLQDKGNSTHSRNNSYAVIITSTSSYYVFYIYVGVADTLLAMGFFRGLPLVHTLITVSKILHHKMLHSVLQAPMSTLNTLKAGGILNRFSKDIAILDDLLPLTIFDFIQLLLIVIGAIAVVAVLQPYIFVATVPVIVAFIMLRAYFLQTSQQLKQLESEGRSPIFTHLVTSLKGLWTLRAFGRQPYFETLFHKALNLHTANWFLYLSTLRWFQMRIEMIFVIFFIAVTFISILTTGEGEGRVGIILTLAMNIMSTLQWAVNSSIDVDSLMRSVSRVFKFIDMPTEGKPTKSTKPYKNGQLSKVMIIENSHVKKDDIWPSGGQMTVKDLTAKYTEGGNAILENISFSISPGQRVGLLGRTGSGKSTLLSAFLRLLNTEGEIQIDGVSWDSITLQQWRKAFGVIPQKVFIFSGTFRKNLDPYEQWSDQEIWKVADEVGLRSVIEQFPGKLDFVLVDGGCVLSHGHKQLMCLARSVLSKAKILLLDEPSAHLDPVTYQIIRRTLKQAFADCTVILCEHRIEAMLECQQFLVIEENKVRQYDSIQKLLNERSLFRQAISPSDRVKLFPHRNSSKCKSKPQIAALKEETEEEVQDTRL
Method: Short-circuit current measurements. ΔF508-CFTR-expressing FRT cells were cultured on Snapwell inserts for 7-9 days. For corrector testing, test compounds were incubated with FRT cells for 18-24 h at 37° C. prior to measurements. For potentiator testing, the FRT cells were incubated for 18-24 h at 27° C. prior to measurements. The basolateral solution contained 130 mM NaCl, 2.7 mM KCl, 1.5 mM KH2PO4, 1 mM CaCl2, 0.5 mM MgCl2, 10 mM glucose, and 10 mM Na-HEPES (pH 7.3). In the apical bathing solution, 65 mM NaCl was replaced by Na gluconate, and CaCl2 was increased to 2 mM. Solutions were bubbled with air and maintained at 37° C. […]
Short-circuit current measurements were performed to further characterize Compound 22 potentiator activity in which apical membrane chloride current was measured in ΔF508-CFTR expressing FRT cells, after low-temperature rescue, in response to Compound 22 additions. […]
Short-circuit current was measured in an electrophysiology assay to verify corrector activity. Apical membrane chloride current was measured in ΔF508-CFTR expressing FRT cells after basolateral membrane permeabilization and in the presence of a transepithelial chloride gradient. […] To assay potentiator activity apical membrane chloride current was measured after low-temperature rescue, in response to CP-3 addition. […]

[2] = target: T2, wildtype CFTR (Homo sapiens, UniProt P13569); test: Short-circuit current in FRT cells expressing wildtype CFTR; settings: added after 0.25 or 0.5 μM forskolin
T2 construct: expressed in transfected cells; host or cells: Fischer rat thyroid (FRT) epithelial cells, stably transfected
T2 sequence (P13569 whole entry): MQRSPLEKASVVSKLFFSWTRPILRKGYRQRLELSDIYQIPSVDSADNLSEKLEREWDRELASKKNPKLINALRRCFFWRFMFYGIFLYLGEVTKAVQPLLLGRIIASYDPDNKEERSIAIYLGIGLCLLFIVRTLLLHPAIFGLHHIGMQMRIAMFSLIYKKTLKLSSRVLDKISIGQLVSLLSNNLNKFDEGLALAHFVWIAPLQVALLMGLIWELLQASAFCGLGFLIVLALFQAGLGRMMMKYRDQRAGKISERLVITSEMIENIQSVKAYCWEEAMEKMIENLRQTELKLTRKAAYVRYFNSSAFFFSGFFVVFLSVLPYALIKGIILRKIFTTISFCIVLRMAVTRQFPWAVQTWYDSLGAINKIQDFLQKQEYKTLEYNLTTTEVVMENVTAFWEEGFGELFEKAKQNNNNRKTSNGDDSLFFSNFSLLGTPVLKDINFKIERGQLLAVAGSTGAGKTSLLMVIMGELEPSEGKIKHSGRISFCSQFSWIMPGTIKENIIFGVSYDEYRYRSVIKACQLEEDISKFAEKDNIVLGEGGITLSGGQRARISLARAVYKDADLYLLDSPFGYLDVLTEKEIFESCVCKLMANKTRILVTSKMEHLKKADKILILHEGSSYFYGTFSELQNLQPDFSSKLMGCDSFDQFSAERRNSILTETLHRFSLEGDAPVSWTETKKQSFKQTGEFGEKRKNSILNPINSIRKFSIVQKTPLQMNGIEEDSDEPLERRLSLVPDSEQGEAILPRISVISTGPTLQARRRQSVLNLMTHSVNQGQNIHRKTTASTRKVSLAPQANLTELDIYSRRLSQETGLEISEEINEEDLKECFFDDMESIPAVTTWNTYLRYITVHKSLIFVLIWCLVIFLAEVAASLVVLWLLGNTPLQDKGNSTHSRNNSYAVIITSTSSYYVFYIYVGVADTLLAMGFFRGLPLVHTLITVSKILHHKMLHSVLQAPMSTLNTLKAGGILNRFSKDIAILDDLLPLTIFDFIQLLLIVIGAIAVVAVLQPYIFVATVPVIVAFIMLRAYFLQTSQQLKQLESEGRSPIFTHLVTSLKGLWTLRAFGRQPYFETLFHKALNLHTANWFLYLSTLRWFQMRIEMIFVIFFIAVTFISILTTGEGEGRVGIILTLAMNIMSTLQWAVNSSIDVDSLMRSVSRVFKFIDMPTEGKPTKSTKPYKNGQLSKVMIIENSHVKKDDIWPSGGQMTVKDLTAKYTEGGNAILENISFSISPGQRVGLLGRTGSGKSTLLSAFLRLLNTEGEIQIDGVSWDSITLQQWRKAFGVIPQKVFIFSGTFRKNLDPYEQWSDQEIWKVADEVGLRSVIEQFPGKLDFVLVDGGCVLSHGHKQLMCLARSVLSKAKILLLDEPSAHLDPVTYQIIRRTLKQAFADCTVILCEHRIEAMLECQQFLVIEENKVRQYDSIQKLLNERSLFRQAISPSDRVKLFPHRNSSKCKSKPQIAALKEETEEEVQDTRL
Method: To further investigate Compound 22 potentiator action, short-circuit current was measured in FRT cells expressing wildtype CFTR (FIG. 5B). Studies were done as in FIG. 5A except that low concentrations of forskolin (0-0.5 μM) were used because higher concentrations fully activate wildtype CFTR and thus would mask Compound 22 potentiator action. As found for ΔF508-CFTR, there was little effect of Compound 22 in the absence of forskolin. In each experiment, after Compound 22 additions, 10 μM forskolin was added to fully activate wildtype CFTR, followed by 50 μM genistein, which had little effect, followed by 10 μM CFTRinh-172, which inhibited all chloride current.

[3] = target: T1, ΔF508-CFTR; test: Corrector assay by YFP/iodide fluorescence quenching in ΔF508-CFTR expressing A549 cells; settings: 24 h at 37° C.
Method: FIGS. 6A and 6B show graphs of Compound 22 activity in G551D-CFTR expressing FRT cells and DF508-CFTR expressing […] cells, according to embodiments of the present disclosure. […] (top) or 27° C. (bottom) for 24 h prior to iodide influx measurement, according to embodiments of the present disclosure. Graphs are representative of 3 sets of measurements.
To test whether Compound 22 is active in a different cell background, potentiator and corrector assays were performed in ΔF508-CFTR transfected A549 cells, which are of human lung epithelial origin. […] Apparent EC50 for Compound 22 potentiator activity was about 8 μM (FIG. 6B). […] (FIG. 6C, top). Compound 22 was further tested for corrector activity in A549 cells under the low-temperature synergy condition; however, DF508-CFTR was fully activated by forskolin ([…]) and genistein ([…]) in this cell model (FIG. 6C, bottom).

[4] = target: T1, ΔF508-CFTR; test: CFTR immunoblot of ΔF508-CFTR expressing FRT cells; settings: 24 h at 37° C.
Method: CFTR Immunoblot. DF508-CFTR expressing FRT cells grown on 6-well plates were treated with Corr-4a ([…]), Compound 22 […] or negative control at 37° C. for 24 h. After treatment, cells were washed with PBS and lysed in 20 mM Hepes (pH 7), 150 mM NaCl, 1 mM EGTA and 1% Igepal containing Complete Protease Inhibitor Cocktail (Roche). After pre-clearing, lysates were subjected to SDS-PAGE and analyzed by immunoblot. Proteins were immunodetected using a mouse monoclonal anti-CFTR antibody (M3A7, Millipore) followed by HRP-conjugated anti-mouse IgG, and visualized by chemiluminescence (ECL Plus, Amersham).
The action of Compound 22 as corrector of defective ΔF508-CFTR cellular processing was verified by CFTR immunoblot analysis (FIG. 4C). Wildtype CFTR was detected as a strong band at 170 kDa (band C), corresponding to complex glycosylated CFTR. […] Band B, which corresponds to core-glycosylated ΔF508-CFTR, was also seen.

pEC50 [1]: ~5.00
activation of wildtype CFTR, in words [2]: partially activated
pEC50 ([2]; read-out: EC50 of wildtype CFTR activation): ~5.00
complex glycosylated CFTR (band C) in immunoblot [4]: band C was visualized
Compound: COc1cccc(C(=O)NCCNc2nc3cc(C)cc(C)c3cc2C#N)c1 [Compound 22, N-(2-((3-Cyano-5,7-dimethylquinolin-2-yl)amino)ethyl)-3-methoxybenzamide]
corrector activity in A549 cells, in words [3]: little corrector activity compared to Corr-4a
